These results are taken from patent US20240092739A1, “COMPOUNDS AND METHODS OF USE” (Ferro Therapeutics, Inc, priority 2020, published 2024).

The subject of experiment [1] is 786-O (renal cell carcinoma) cells. Briefly: Cell proliferation (Alamar Blue) assay, 786-O cells. To be noted: Homo sapiens, 786-0, 786-O cells, Alamar Blue. The format is cell-based. The method, then:
(§1) Cell viability assay was performed to assess the potency of the compounds in human cancer cell lines 786-0 (renal cell carcinoma) and SJSA-1 (osteosarcoma). Additional cell lines, such as pancreatic cancer cell lines (Panc 02.13, BxPC-3, Panc 12, Panc 02.03, Panc 6.03, PSN-1, HPAC, and Capan-1), prostate cancer cell lines (PC-3, DU145, […], NCI-H660, 1PH1 LNCaP, BM-1604, and MDA PCa 2b), etc., can be tested in a similar method.
(§2) Cells (SJSA-1, 786-0 and A431) were seeded (5000 cells/100 μL/well) in 96-well tissue culture plate and incubated at 37° C./500 CO2 for 16-24 hours. The cells were then treated with compounds (25 μL of 5×). The compound concentrations were 10-0.0005 μM prepared in 3-fold serial dilutions with final DMSO concentration of 1%. The plates were then incubated for 24 h at 37° C./[…] in a moist environment. Then Alamar Blue™ reagent (final concentration 1×-12.5 μL) was added to each well and incubated for 1.5 hours at 37° C./500 CO2. The plates were read on fluorescence reader at 540 nm excitation and 590 nm emission wavelengths. The IC50 values were subsequently determined using a sigmoidal dose-response curve (variable slope) in GraphPad Prism® 5 software. Tables A-3 and B-11 show cell proliferation data for exemplary compounds as described herein.
A general note: The colour change of resazurin is a common sign of viable cells or microbes.

Experiment [2] relates to 786-O cells + Ferrastatin-1. Briefly: GPX4 inhibition assay: cell proliferation (Alamar Blue) in 786-O cells with ferrostatin rescue. The format is cell-based, human. The method, then: as §2
Studies have shown that lipophilic antioxidants, such as ferrostatin, can rescue cells from GPX4 inhibition-induced ferroptosis. For instance, mesenchymal state GPX4-knockout cells can survive in the presence of ferrostatin, however, when the supply of ferrostatin is terminated, these cells undergo ferroptosis (see, e.g., Viswanathan et al., Nature 547:453-7, 2017). […] Accordingly, the ability of a molecule to induce ferroptotic cancer cell death, and that such ability is admonished by the addition of ferrostatin, is clear indication that the molecule is an GPX4 inhibitor. Cell proliferation data for exemplary compounds with and without ferrostatin can be seen in Table A-3.

The next experiment deals with A431 cells. Briefly: Cell proliferation (Alamar Blue) assay, A431 cells. The class given is cell-based. As to conditions: Homo sapiens, A-431, A431 cells, Alamar Blue. Here is the method: as §1, §2
Experiment [3] concerns SJSA-1 (osteosarcoma) cells. Briefly: Cell proliferation (Alamar Blue) assay, SJSA-1 cells. As to conditions: Homo sapiens, 24 h compound treatment. The class given is cell-based. Here is the method:
as §1, §2

[4] abbreviates: 24 h compound incubation, read-out: Cell proliferation IC50 (μM) 786-O.
Setting [5] is: 786-O cells with Ferrastatin-1 (rescue), read-out: Cell proliferation IC50 (μM) 786-O + Ferrastatin-1.
Setting [6] is: 24 h compound incubation, read-out: Cell proliferation IC50 (μM) A431.
[7] abbreviates: 24 h compound treatment, read-out: IC50 (μM) 786-O.
The mark [8] stands for this setting: 786-O cells in presence of Ferrastatin-1 (rescue), read-out: IC50 (μM) 786-O + Ferrastatin-1.
[9] abbreviates: 24 h compound treatment, read-out: IC50 (μM) A431.

Like-named read-outs stand apart in the source and are kept apart here.

Regarding `CCCC[C@H]1Cc2cc(OCCO)ccc2[C@H](c2ccc(NC34CC5CC(CC(C5)C3)C4)cc2)N1C(=O)C#C[Si](C)(C)C` [Compound A-44], the IC50 in experiment [1] (setting [4]) was determined as 0.0053 µM; in experiment [2] (setting [5]), 2.82 µM; in the experiment on A431 cells (setting [6]), 2.24 µM.
As to `CCCC[C@H]1Cc2cc(OC)ccc2[C@H](c2ccc(NC34CC5CC(C3)CC(OC(=O)[C@@H](N)C(C)C)(C5)C4)cc2)N1C(=O)C#C[Si](C)(C)C` [Compound A-45], the figures for the IC50 (in experiment [1] (setting [4]); in experiment [2] (setting [5]); with A431 cells (setting [6])) were 0.0177 µM, 2.04 µM and 1.7 µM, respectively.
For `CCCC[C@H]1Cc2cc(OC)ccc2[C@H](c2ccc(NC34CC5CC(CC(O)(C5)C3)C4)cc2)N1C(=O)C#C[Si](C)(C)C` [Compound A-47], the IC50 in experiment [1] (setting [4]) was found to be 0.049 µM; in experiment [2] (setting [5]) it was 2.33 µM; in the experiment on A431 cells (setting [6]), 1.63 µM.
Regarding `C#CC(=O)N1[C@@H](CCCC)Cc2cc(OC)ccc2[C@@H]1c1ccc(NC23CC4CC(CC(O)(C4)C2)C3)cc1` [Compound B-13], the figures for the IC50 (in experiment [1] (setting [7]); in experiment [2] (setting [8]); in the experiment on A431 cells (setting [9])) were 0.055 µM, 2.01 µM and 1.49 µM, respectively.
Take `C#CC(=O)N1[C@@H](CCCC)Cc2cc(OC)ccc2[C@@H]1c1ccc(NC(=O)c2ccnc(C)c2)cc1` [Compound B-49, N-(4-((1S,3S)-3-butyl-6-methoxy-2-propioloyl-1,2,3,4-tetrahydroisoquinolin-1-yl)phenyl)-2-methylisonicotinamide]: the IC50 in experiment [1] (setting [7]) came to 0.037 µM; in experiment [3], 0.2 µM.
For the compound `C#CC(=O)N1[C@@H](CCCC)Cc2cc(CCC(=O)O)ccc2[C@@H]1c1ccc(NC23CC4CC(CC(C4)C2)C3)cc1` [Compound B-55], the IC50 is 0.046 µM in experiment [1] (setting [7]), at least 10 µM in experiment [2] (setting [8]) and at least 10 µM in the experiment with A431 cells (setting [9]).
For the compound `C#CC(=O)N1[C@@H](CCCC)Cc2cc(CCCO)ccc2[C@@H]1c1ccc(NC23CC4CC(CC(C4)C2)C3)cc1` [Compound B-56], the IC50 in experiment [1] (setting [7]) amounted to 0.012 µM; in experiment [2] (setting [8]) it was 1.27 µM; in the experiment with A431 cells (setting [9]), 0.117 µM.
The like results for `C#CC(=O)N1[C@@H](CCCC)Cc2cc(OCCOC(=O)CN)ccc2[C@@H]1c1ccc(NC23CC4CC(CC(C4)C2)C3)cc1` [Compound B-57] were, in that order, 0.005 µM, 2.81 µM and 2.88 µM.
The like results for `C#CC(=O)N1[C@@H](CCCC)Cc2cc(NC(=O)C3CCCN3)ccc2[C@@H]1c1ccc(NC23CC4CC(CC(C4)C2)C3)cc1` (some centres unmarked) [Compound B-58] were, in that order, 0.011 µM, 2.36 µM and 0.856 µM.
The like results for `C#CC(=O)N1[C@@H](CCCC)Cc2cc(OC)ccc2[C@@H]1c1ccc(NC2CCC2)c(Cl)c1` [Compound B-59] were, in that order, 0.052 µM, 5.84 µM and 2.37 µM.
Consider `C#CC(=O)N1[C@@H](CCCC)Cc2cc(OCCO)ccc2[C@@H]1c1ccc(NC23CC4CC(CC(C4)C2)C3)cc1` [Compound B-60], for which the IC50 amounted to 0.005 µM in experiment [1] (setting [7]), 2.18 µM in experiment [2] (setting [8]) and 2.12 µM with A431 cells (setting [9]).
`C#CC(=O)N1[C@@H](CCCC)Cc2cc(C(N)=O)ccc2[C@@H]1c1ccc(NC23CC4CC(CC(C4)C2)C3)cc1` [Compound B-61]: the IC50 in experiment [1] (setting [7]) worked out at 0.012 µM; in experiment [2] (setting [8]), 1.28 µM; in the experiment on A431 cells (setting [9]) it was 3.54 µM.
With `C#CC(=O)N1[C@@H](CCCC)Cc2cc(CO)ccc2[C@@H]1c1ccc(NC23CC4CC(CC(C4)C2)C3)cc1` [Compound B-62], the IC50 is 0.005 µM in experiment [1] (setting [7]), 7.15 µM in experiment [2] (setting [8]) and 2.43 µM in the experiment with A431 cells (setting [9]).
For `C#CC(=O)N1[C@@H](CCCC)Cc2cc(C(F)F)ccc2[C@@H]1c1ccc(NC23CC4CC(CC(C4)C2)C3)cc1` [Compound B-63], in that order: 0.009 µM, 0.939 µM and 0.727 µM.
As to `C#CC(=O)N1[C@@H](CCCC)Cc2cc(OCc3cn(CCOCCOCCOCCNC(=O)CCCC[C@@H]4SC[C@@H]5NC(=O)N[C@@H]54)nn3)ccc2[C@@H]1c1ccc(NC23CC4CC(CC(C4)C2)C3)cc1` [Compound B-65], the IC50 (in experiment [1] (setting [7]); in experiment [2] (setting [8]); with A431 cells (setting [9])) was at least 10 µM in each case.
Turning to `C#CC(=O)N1[C@@H](CCCC)Cc2cc(OC)ccc2[C@@H]1c1ccc(NC23CC4CC(CC(C4)C2)C3)c(Cl)c1` [Compound B-66], the IC50 in experiment [1] (setting [7]) amounted to 0.055 µM; in experiment [2] (setting [8]), 2.62 µM; with A431 cells (setting [9]), 3.15 µM.
The like results for `C#CC(=O)N1[C@@H](CCCC)Cc2cc(OC)ncc2[C@@H]1c1ccc(NC23CC4CC(CC(C4)C2)C3)cc1` [Compound B-67] were, in that order, 0.005 µM, 1.19 µM and 1.13 µM.
Consider `C#CC(=O)N1[C@@H](CCCC)Cc2cc(OC)ncc2[C@H]1c1ccc(NC23CC4CC(CC(C4)C2)C3)cc1` [Compound B-68], for which the IC50 in experiment [1] (setting [7]) was 0.042 µM; in experiment [2] (setting [8]), 2.61 µM; in the experiment with A431 cells (setting [9]), 2.35 µM.
The like results for `C#CC(=O)N1[C@@H](CCCC)Cc2c(OC)cccc2[C@@H]1c1ccc(NC23CC4CC(CC(C4)C2)C3)cc1` [Compound B-69] were, in that order, 0.015 µM, 2.47 µM and 1.79 µM.
The like results for `C#CC(=O)N1[C@@H](CCCC)Cc2cc(OCCOC)ccc2[C@@H]1c1ccc(NC23CC4CC(CC(C4)C2)C3)cc1` [Compound B-70] were, in that order, 0.012 µM, 1.59 µM and 2.08 µM.
The like results for `C#CC(=O)N1[C@@H](CC(C)C)Cc2cc(OC)ccc2[C@@H]1c1ccc(NC23CC4CC(CC(C4)C2)C3)cc1` [Compound B-71] were, in that order, 0.066 µM, 1.71 µM and 1.18 µM.
On to `C#CC(=O)N1[C@@H](CCC(C)C)Cc2cc(OC)ccc2[C@@H]1c1ccc(NC23CC4CC(CC(C4)C2)C3)cc1` [Compound B-72], for which the IC50 was found to be 0.036 µM in experiment [1] (setting [7]), 1.6 µM in experiment [2] (setting [8]) and 1.7 µM in the experiment on A431 cells (setting [9]).
The like results for `C#CC(=O)N1[C@@H](CCCC)Cc2cc(OC)ccc2[C@@H]1c1cccc(NC23CC4CC(CC(C4)C2)C3)c1` [Compound B-74] were, in that order, 0.025 µM, 1.91 µM and 3.06 µM.
As for `C#CC(=O)N1[C@@H](CCCC)Cc2cc(C(F)(F)F)ccc2[C@@H]1c1ccc(NC23CC4CC(CC(C4)C2)C3)cc1` [Compound B-77], the IC50 in experiment [1] (setting [7]) is 0.012 µM; in experiment [2] (setting [8]) it was 1.21 µM; in the experiment on A431 cells (setting [9]) it was 0.557 µM.
For the compound `C#CC(=O)N1[C@@H](CCCC)Cc2cc(C#N)ccc2[C@@H]1c1ccc(NC23CC4CC(CC(C4)C2)C3)cc1` [Compound B-78], the IC50 in experiment [1] (setting [7]) came to 0.004 µM; in experiment [2] (setting [8]) it was 0.662 µM; in the experiment with A431 cells (setting [9]) it was 0.569 µM.
As to `C#CC(=O)N1[C@@H](CCCC)Cc2cc(OC(F)(F)F)ccc2[C@@H]1c1ccc(NC23CC4CC(CC(C4)C2)C3)cc1` [Compound B-79], the IC50 came to 0.017 µM in experiment [1] (setting [7]), 1 µM in experiment [2] (setting [8]) and 7 µM in the experiment on A431 cells (setting [9]).
On to `C#CC(=O)N1[C@@H](CCCC)Cc2cc(OC)ccc2[C@H]1c1ccc(NC23CC4CC(CC(C4)C2)C3)c(C#N)c1` [Compound B-81], for which the figures for the IC50 (in experiment [1] (setting [7]); in experiment [2] (setting [8]); with A431 cells (setting [9])) were 0.01 µM, at least 10 µM and 4.9 µM, respectively.
Take `C#CC(=O)N1[C@@H](CCCC)Cc2cc(OC)ccc2[C@@H]1c1cc(F)c(NC23CC4CC(CC(C4)C2)C3)c(F)c1` [Compound B-82]: the IC50 in experiment [1] (setting [7]) was 0.024 µM; in experiment [2] (setting [8]) it was 1.71 µM; in the experiment with A431 cells (setting [9]) it was 1.84 µM.
Take `C#CC(=O)N1[C@@H](CCCC)Cc2cc(OC)ccc2[C@@H]1c1ccc(NC23CC4CC(CC(C4)C2)C3)cc1F` [Compound B-83]: the IC50 in experiment [1] (setting [7]) came to 2.79 µM; in experiment [2] (setting [8]), 6.59 µM; in the experiment with A431 cells (setting [9]), 7.87 µM.
On to `C#CC(=O)N1[C@@H](CCCC)Cc2cc(OC)ccc2[C@@H]1c1ccc(NC23CC4CC(CC(C4)C2)C3)c(F)c1` [Compound B-84], for which the IC50 amounted to 0.037 µM in experiment [1] (setting [7]), 0.056 µM in experiment [2] (setting [8]) and 0.881 µM in the experiment on A431 cells (setting [9]).
